Reference: patent US12435061B2 (priority 2020, dated 2025)
Values after ≈ are worked out from the molar mass of the structure shown. Values joined by “and” are separate entries in the source; they are usually repeats but may differ in a detail not shown here. Identical values can stand only once. Like-named read-outs stand apart in the source and are kept apart here.

Key:
hTRPV3 [1] = molecular target: T1, hTRPV3 (Homo sapiens (Human), UniProt Q8NET8); assay: Whole-cell patch clamp, hTRPV3 Phase 1 / Phase 2 currents; format: cell-based
Summary of the method: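 Whole-cell recordings on induced TRPV3 cells replated on coverslips, held at −40 mV with 400 ms ramps from −120 to +100 mV every 5 s; currents read at −80 and +80 mV. Ringer's external solution; current activated by heating to ≥28 °C or 20 μM 2-APB.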

[2] = Aqueous solubility assay in Normal Ringer Solution; conditions: Normal Ringer Solution; for solubility at 40 min: saline or isotonic, kinetic from dmso stock; for Solubility Ringer (nM): room temperature
Experimental: Following vortex and incubation for a sufficient time (e.g. 40 minutes at room temperature), solutions were filtered, quenched with acetonitrile, and analyzed by Liquid Chromotography. Solubility Limits were determined by comparison to a standard curve.

[3] = Metabolic Stability assay, rat liver microsomes; format: in vitro ADME; conditions: for half-life at 1 μM: read-out: LM T1/2 (min) (rat)
Summary of the method: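 Test article at 1 μM starting concentration incubated with human or rat liver microsomes at 37 °C, with the reaction started by NADPH regeneration components. Aliquots were quenched in cold acetonitrile/MeOH/H2O at 0, 7, 15, 30 and 60 min and analysed by HPLC/MS/MS.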

hTRPV3 [4] = molecular target: T1, hTRPV3; assay: hTRPV3 HAMA IC50 assay (Hamamatsu FDSS6000 calcium flux, TRex-293 cells)
Experimental: IC50s were calculated using CBIS from ChemInnovation (San Diego).

[5] = Phase 1 current, inward, whole-cell patch clamp, read-out: hTRPV3 Patch P1 Inwd
[6] = Phase 1 current, read-out: hTRPV3 (nM) (Phase 1)
[7] = read-out: hTRPV3 (nM) (Phase 1)
[8] = hTRPV3 HAMA IC50 (nM) (30 min), 30 min
[9] = Phase 2 current, inward, whole-cell patch clamp, read-out: hTRPV3 Patch P2 Inwd
[10] = Phase 2 current, read-out: hTRPV3 (nM) (Phase 2)
[11] = hTRPV3 HAMA IC50 (nM) (5 min), 5 min

T1 sequence (Q8NET8 whole entry): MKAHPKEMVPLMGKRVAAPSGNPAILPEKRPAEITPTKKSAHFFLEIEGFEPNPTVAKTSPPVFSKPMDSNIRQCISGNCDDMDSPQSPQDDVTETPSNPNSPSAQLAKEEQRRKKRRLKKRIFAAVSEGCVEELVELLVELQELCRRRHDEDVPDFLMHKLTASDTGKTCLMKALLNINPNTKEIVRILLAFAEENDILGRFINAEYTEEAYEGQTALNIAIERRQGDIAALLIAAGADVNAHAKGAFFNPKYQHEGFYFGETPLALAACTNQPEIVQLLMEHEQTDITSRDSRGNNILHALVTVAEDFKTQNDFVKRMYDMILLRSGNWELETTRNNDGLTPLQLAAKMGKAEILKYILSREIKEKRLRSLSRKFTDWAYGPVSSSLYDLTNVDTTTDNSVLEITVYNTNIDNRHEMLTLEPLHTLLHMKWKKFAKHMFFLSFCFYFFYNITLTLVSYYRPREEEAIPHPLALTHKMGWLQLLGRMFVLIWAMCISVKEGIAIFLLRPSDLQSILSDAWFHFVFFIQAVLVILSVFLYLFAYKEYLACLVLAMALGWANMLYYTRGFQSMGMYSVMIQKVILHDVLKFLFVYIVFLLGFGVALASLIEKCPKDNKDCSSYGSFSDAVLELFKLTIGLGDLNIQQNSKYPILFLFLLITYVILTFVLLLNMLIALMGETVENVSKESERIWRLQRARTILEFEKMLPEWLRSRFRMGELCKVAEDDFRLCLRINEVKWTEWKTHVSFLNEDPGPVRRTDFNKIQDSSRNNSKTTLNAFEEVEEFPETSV

Row | Molecule | IC50 (hTRPV3 [1]; [5]) [nM] | IC50 (hTRPV3 [1]; [6]) [nM] | solubility at 40 min [2] [µM] | half-life at 1 μM [3] [min] | hTRPV3 HAMA IC50 (nM) (5 min) (hTRPV3 [4]; 5 min) | IC50 (hTRPV3 [4]; [8]) [nM] | Solubility Ringer (nM) [2] | other results
1 | Cc1cccnc1O[C@H]1CCN(c2ccc(-c3ccccc3)cc2CO)C1 [Compound 1-131, (S)-(4-(3-(3-methylpyridin-2-yloxy)pyrrolidin-1-yl)biphenyl-3-yl)methanol] | 100 to 1000 | 148 | ~0.62 (≈ 0.223 µg/mL) | 23.5 | no fit (5 min) |  |  | 
2 | NC(=O)c1cc(Oc2ccccc2)ccc1N1CC[C@H](Oc2ncccc2Cl)C1 [Compound 1-129] |  |  |  | 6.42 |  |  |  | IC50 (hTRPV3 [1]; hTRPV3 Patch P1 Inwd (nM)): 100 to 1000 nM; hTRPV3 HAMA IC50 (nM) (5 min) (hTRPV3 [4]): no fit (5 min)
3 | COc1ccccc1Oc1ccc(N2CC[C@H](Oc3ncccc3Cl)C2)c(CO)c1 [Compound 1-221, (S)-(2-(3-(3-chloropyridin-2-yloxy)pyrrolidin-1-yl)-5-(2-methoxyphenoxy)phenyl)methanol] |  |  | ~2.9 (≈ 1.24 µg/mL) | 12.9 | no fit | 19400 |  | IC50 (hTRPV3 [1]; hTRPV3 Patch P1 Inwd (nM)): 100 to 1000 nM; IC50 (hTRPV3 [1]; [7]): 159 nM
4 | OCCOc1cc(-c2ccccc2)ccc1N1CC[C@H](Oc2ccc(C(F)(F)F)cn2)C1 [Compound 1-135, (S)-2-(4-(3-(5-(trifluoromethyl)pyridin-2-yloxy)pyrrolidin-1-yl)biphenyl-3-yloxy)ethanol] | 100 to 1000 | 765 | 0.19 (≈ 0.0844 µg/mL) | 69.7 | no fit (5 min) |  |  | 
5 | OCc1cc(-c2ccccc2)ccc1N1CC[C@H](Oc2ccc(C(F)(F)F)cn2)C1 [Compound 1-115, (S)-(4-(3-(5-(trifluoromethyl)pyridin-2-yloxy)pyrrolidin-1-yl)biphenyl-3-yl)methanol] | 10 to 100 | 74.2 | 0.37 (≈ 0.153 µg/mL) | 45.8 |  |  |  | IC50 (hTRPV3 [1]; [9]): 10 to 100 nM; IC50 (hTRPV3 [1]; [10]): 59 nM; IC50 (hTRPV3 [4]; [11]): > 20000 nM and 5860 nM
6 | OCc1ccc(Oc2ccccc2Cl)cc1N1CC[C@H](Oc2ncccc2Cl)C1 [Compound 1-232, (S)-(4-(2-chlorophenoxy)-2-(3-(3-chloropyridin-2-yloxy)pyrrolidin-1-yl)phenyl)methanol] | 10 to 100 | ~72.5 | 0.25 (≈ 0.108 µg/mL) | 5.87 | no fit (5 min) no fit (30 min) |  |  | hTRPV3 HAMA IC50 (nM) (30 min) (hTRPV3 [4]; 30 min): no fit (5 min) no fit (30 min)
7 | COc1ccccc1Oc1ccc(N2CC[C@H](Oc3ncccc3Cl)C2)c(CCO)c1 [Compound 1-237, (S)-2-(2-(3-(3-chloropyridin-2-yloxy)pyrrolidin-1-yl)-5-(2-methoxyphenoxy)phenyl)ethanol] | 100 to 1000 | 251 | ~1.5 (≈ 0.661 µg/mL) | 8.33 |  | 19800 |  | IC50 (hTRPV3 [4]; [11]): > 20000 nM
8 | Cc1ccccc1Oc1ccc(CO)c(N2CC[C@H](Oc3ncccc3Cl)C2)c1 [Compound 1-241, (S)-(2-(3-(3-chloropyridin-2-yloxy)pyrrolidin-1-yl)-4-(o-tolyloxy)phenyl)methanol] | 10 to 100 | 18.6 | ~0.37 (≈ 0.152 µg/mL) | 6.19 | no fit (5 min) no fit (30 min) |  |  | hTRPV3 HAMA IC50 (nM) (30 min) (hTRPV3 [4]; 30 min): no fit (5 min) no fit (30 min)
9 | NC(=O)c1cc(Cc2ccccc2)ccc1N1CC[C@H](Oc2ccc(C(F)(F)F)cn2)C1 [Compound 1-140, (S)-5-benzyl-2-(3-(5-(trifluoromethyl)pyridin-2-yloxy)pyrrolidin-1-yl)benzamide] |  |  |  | 27.7 | no fit (5 min) |  | BLQ | IC50 (hTRPV3 [1]; hTRPV3 Patch P1 Inwd (nM)): 100 to 1000 nM; IC50 (hTRPV3 [1]; [7]): 710 nM
10 | (S)-(2′-chloro-4-(3-(5-(trifluoromethyl)pyridin-2-yloxy)pyrrolidin-1-yl)biphenyl-3-yl)methanol [Compound 1-132] | 10 to 100 | 32 |  |  | no fit (5 min) |  | BLQ | LM T1/2 (min) (rat) ([3]; 1 μM): 54.1 (rat) min
11 | CC(O)c1cc(-c2ccccc2)ccc1N1CC[C@H](Oc2ccc(C(F)(F)F)cn2)C1 (stereo partly drawn) [Compound 1-121, 1-(4-((S)-3-(5-(trifluoromethyl)pyridin-2-yloxy)pyrrolidin-1-yl)biphenyl-3-yl)ethanol] | 10 to 100 | 102 |  | 33.3 | no fit (5 min) |  | BLQ | 
12 | CCc1ccccc1Oc1ccc(N2CC[C@H](Oc3ncccc3Cl)C2)c(CO)c1 [Compound 1-222, (S)-(2-(3-(3-chloropyridin-2-yloxy)pyrrolidin-1-yl)-5-(2-ethylphenoxy)phenyl)methanol] | < 10 | 3.91 |  | 18.7 | no fit | 1790 | BLQ | 
13 | OCCCc1cc(-c2ccccc2)ccc1N1CC[C@H](Oc2ccc(C(F)(F)F)cn2)C1 [Compound 1-138, (S)-3-(4-(3-(5-(trifluoromethyl)pyridin-2-yloxy)pyrrolidin-1-yl)biphenyl-3-yl)propan-1-ol] | 100 to 1000 | 275 |  | 62.4 | no fit (5 min) |  | BLQ | 
14 | CCc1ccccc1Oc1ccc(CO)c(N2CC[C@H](Oc3ncccc3Cl)C2)c1 [Compound 1-233, (S)-(2-(3-(3-chloropyridin-2-yloxy)pyrrolidin-1-yl)-4-(2-ethylphenoxy)phenyl)methanol] | 10 to 100 | ~21.6 |  | 10.4 | no fit | > 20000 | BLQ | 
15 | Cc1ccccc1Oc1ccc(N2CC[C@H](Oc3ncccc3Cl)C2)c(CO)c1 [Compound 1-173, (S)-(2-(3-(3-chloropyridin-2-yloxy)pyrrolidin-1-yl)-5-(o-tolyloxy)phenyl)methanol] | 10 to 100 | ~29 |  | 27.9 |  | 1900 | BLQ | IC50 (hTRPV3 [1]; [9]): 10 to 100 nM; IC50 (hTRPV3 [1]; [10]): 34.7 nM; IC50 (hTRPV3 [4]; [11]): > 20000 nM and 12000 nM
16 | CCOc1ccccc1-c1ccc(N2CC[C@H](Oc3ccc(C(F)(F)F)cn3)C2)c(CO)c1 [Compound 1-162, (S)-(2′-ethoxy-4-(3-(5-(trifluoromethyl)pyridin-2-yloxy)pyrrolidin-1-yl)biphenyl-3-yl)methanol] | 10 to 100 | 101 |  | 22.8 | no fit (5 min) |  |  | 
17 | NC(=O)c1cc(-c2ccccc2Cl)ccc1N1CC[C@H](Oc2ccc(C(F)(F)F)cn2)C1 [Compound 1-64, (S)-2′-chloro-4-(3-(5-(trifluoromethyl)pyridin-2-yloxy)pyrrolidin-1-yl)biphenyl-3-carboxamide] | 100 to 1000 | 145 |  |  | no fit (5 min) |  | BLQ | IC50 (hTRPV3 [1]; [9]): 100 to 1000 nM; IC50 (hTRPV3 [1]; [10]): 160 nM
18 | Cc1ccccc1-c1ccc(N2CC[C@H](Oc3ncccc3C)C2)c(CO)n1 [Compound 1-179, (S)-(3-(3-(3-methylpyridin-2-yloxy)pyrrolidin-1-yl)-6-o-tolylpyridin-2-yl)methanol] | 100 to 1000 | 329 | > 0.73 |  | no fit (5 min) |  |  | IC50 (hTRPV3 [1]; [9]): 100 to 1000 nM; IC50 (hTRPV3 [1]; [10]): ~841 nM
19 | O=[N+]([O-])c1cc(-c2ccccc2)ccc1N1CC[C@H](Oc2ccc(C(F)(F)F)cn2)C1 [Compound 1-66, (S)-2-(1-(3-nitrobiphenyl-4-yl)pyrrolidin-3-yloxy)-5-(trifluoromethyl)pyridine] |  |  |  |  | no fit (5 min) |  | BLQ | hTRPV3 (nM) (Phase 1) (hTRPV3 [1]): Incomplete Block (Phase 1)
20 | Cc1ccccc1-c1ccc(N2CC[C@H](Oc3ccc(C(F)(F)F)cn3)C2)c(CO)n1 [Compound 1-182, (S)-(6-o-tolyl-3-(3-(5-(trifluoromethyl)pyridin-2-yloxy)pyrrolidin-1-yl)pyridin-2-yl)methanol] | > 1000 | > 3200 | ~0.8 (≈ 0.344 µg/mL) |  |  | 4600 |  | IC50 (hTRPV3 [4]; [11]): 19900 nM
21 | NC(=O)c1cc(Oc2ccccc2Cl)ccc1N1CC[C@H](Oc2ncccc2Cl)C1 [Compound 1-181, (S)-5-(2-chlorophenoxy)-2-(3-(3-chloropyridin-2-yloxy)pyrrolidin-1-yl)benzamide] | 100 to 1000 | 571 |  | 8.96 | no fit (5 min) |  |  | IC50 (hTRPV3 [1]; [9]): 100 to 1000 nM; IC50 (hTRPV3 [1]; [10]): 834 nM
22 | CCc1ccccc1Oc1ccc(N2CC[C@H](Oc3ncccc3Cl)C2)c(CCO)c1 [Compound 1-236, (S)-2-(2-(3-(3-chloropyridin-2-yloxy)pyrrolidin-1-yl)-5-(2-ethylphenoxy)phenyl)ethanol] | < 10 | 8.27 |  |  | no fit | 5900 | BLQ | 
23 | NC(=O)c1cc(C(=O)c2ccccc2)ccc1N1CC[C@@H](Oc2ccc(C(F)(F)F)cn2)C1 [Compound 1-154, (R)-5-benzoyl-2-(3-(5-(trifluoromethyl)pyridin-2-yloxy)pyrrolidin-1-yl)benzamide] | > 1000 | 3040 |  | 54.5 | no fit (5 min) |  |  | 
